The assay has as its target T1, DYRK1B (dual-specificity tyrosine phosphorylation-regulated kinase 1B) (Homo sapiens, UniProt Q9Y463).
T1 construct: Human DYRK1B recombinant protein (#PV4649)
The assay can be described thus: LanthaScreen Eu Kinase Binding Assay (TR-FRET displacement of kinase tracer […]), recombinant protein. For orientation: In TR-FRET formats the signal depends on donor and acceptor labels being close together.

SMILES strings stand for the structures.

T1 sequence (Q9Y463 whole entry): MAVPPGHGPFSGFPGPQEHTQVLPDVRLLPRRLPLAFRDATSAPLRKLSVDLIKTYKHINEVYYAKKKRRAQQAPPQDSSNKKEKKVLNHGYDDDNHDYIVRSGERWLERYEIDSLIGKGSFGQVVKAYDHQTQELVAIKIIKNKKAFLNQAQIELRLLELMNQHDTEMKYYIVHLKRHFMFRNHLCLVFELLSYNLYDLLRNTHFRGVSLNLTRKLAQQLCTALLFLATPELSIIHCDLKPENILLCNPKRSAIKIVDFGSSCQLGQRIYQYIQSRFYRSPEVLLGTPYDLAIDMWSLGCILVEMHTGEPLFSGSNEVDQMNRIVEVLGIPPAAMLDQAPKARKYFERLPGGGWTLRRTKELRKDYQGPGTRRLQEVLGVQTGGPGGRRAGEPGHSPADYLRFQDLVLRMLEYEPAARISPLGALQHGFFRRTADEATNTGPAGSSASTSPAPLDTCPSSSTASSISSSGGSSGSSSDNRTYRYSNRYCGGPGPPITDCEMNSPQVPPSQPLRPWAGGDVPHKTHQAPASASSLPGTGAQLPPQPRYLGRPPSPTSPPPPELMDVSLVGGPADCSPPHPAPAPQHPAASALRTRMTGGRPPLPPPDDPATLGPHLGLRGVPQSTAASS

For `COc1ccc(-c2n[nH]c3ncc(-c4ccc(NC(C)=O)cc4)cc23)cc1` [KS-40070, N-(4-(3-(4-methoxyphenyl)-1H-pyrazolo [3,4-b]pyridin-5-yl)phenyl)acetamide], the IC50 (as a rule, the concentration that inhibits the measured activity by half) was 18 nM.

These data come from publication PMC12339561, “Discovery of a selective dual-specificity tyrosine phosphorylation-regulated kinase 1B inhibitor with anti-adipogenic and anti-diabetic activities” (Frontiers in Pharmacology, 2025).
